target: T1, Sphingomyelin phosphodiesterase (Homo sapiens) (UniProt P17405); test: Compound was evaluated as a substrate for human placental acidic sphingomyelinase utilizing the usual substrate C14-labeled sphingomyelin.
T1 sequence (whole entry): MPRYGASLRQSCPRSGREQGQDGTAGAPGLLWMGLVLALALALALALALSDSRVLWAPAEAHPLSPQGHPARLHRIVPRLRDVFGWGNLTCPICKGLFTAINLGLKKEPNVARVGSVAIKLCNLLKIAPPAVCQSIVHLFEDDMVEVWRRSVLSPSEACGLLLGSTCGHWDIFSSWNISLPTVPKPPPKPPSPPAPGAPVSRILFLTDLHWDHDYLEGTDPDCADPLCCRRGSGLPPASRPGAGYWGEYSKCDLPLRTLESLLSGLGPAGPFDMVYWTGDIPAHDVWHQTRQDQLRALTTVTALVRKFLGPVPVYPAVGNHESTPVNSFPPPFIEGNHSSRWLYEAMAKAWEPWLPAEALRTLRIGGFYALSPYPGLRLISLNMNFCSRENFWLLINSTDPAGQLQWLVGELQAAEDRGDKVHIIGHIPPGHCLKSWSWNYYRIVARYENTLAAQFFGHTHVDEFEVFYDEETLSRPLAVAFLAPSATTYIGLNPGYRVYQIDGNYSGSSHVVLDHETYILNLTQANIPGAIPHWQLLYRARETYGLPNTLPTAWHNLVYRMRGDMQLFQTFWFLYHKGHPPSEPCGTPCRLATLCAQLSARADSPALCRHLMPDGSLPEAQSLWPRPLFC

Cleavage rate | SMILES
1.72 nM U-1 hr-1 | CCCCCCCCCCCCC/C=C/[C@@H](O)[C@H](COP(=O)([O-])OCC[N+](C)(C)C)NC(=O)CCCCCCCCCCCCCCCCCCC
0.29 nM U-1 hr-1 | CCCCCCCCCCCCC/C=C/[C@@H](O)[C@H](COP(=O)(O)OCCCCCCNc1ccc([N+](=O)[O-])c2nonc12)NC(=O)CCCCCNC(=O)CCCC[C@@H]1SC[C@@H]2NC(=O)N[C@@H]21
1.32 nM U-1 hr-1 | CCCCCCCCCCCCC/C=C/[C@@H](O)[C@H](COP(=O)(O)OCC[N+](C)(C)CCNS(=O)(=O)c1cccc2c(N(C)C)cccc12)NC(=O)CCCCCCCCCCCCCCCCCCC
0.51 nM U-1 hr-1 | CCCCCCCCCCCCC/C=C/[C@@H](O)[C@H](COP(=O)(O)OCCCCNS(=O)(=O)c1cccc2c(N(C)C)cccc12)NC(=O)CCCCCNC(=O)CCCC[C@@H]1SC[C@@H]2NC(=O)N[C@@H]21

— ChEMBL document CHEMBL1152073, “Synthesis of novel fluorescently labeled sphingomyelin derivatives useful for sphingomyelinase assay” (Bioorg Med Chem Lett, 1997)
